{"source": "patent US20170246230A1", "about": "“PHARMACEUTICAL COMPOSITION FOR TREATING INFERTILITY, AND PREPARATION METHOD AND USE THEREOF” (priority 2014, published 2017)", "type_in_all_cases": "in vivo, Kunming mice", "key": {"[1]": {"test_system": "mice with sterility induced by androgens", "experiment": "Conception conditions of mated female mice after the medication", "settings": "18 mg/kg, 4 weeks, 10 d after mating", "procedure": "(§1) 120 Kunming female mice (20 days old) were randomly divided into 6 groups according to their weights and there were 20 in each group. 20 mice in the normal control group were subcutaneously injected with saline and the remaining 100 mice were used in modeling and subcutaneously injected with TP (testosterone propionate). The modeling method is described like this, 100 mice were subcutaneously injected with 0.06 mL TP (testosterone propionate), 4 d/time, continuous injection for 2 weeks and drug withdrawal for 1 weeks. Those mice after modelling were randomly divided into […], i.e. model control group, Clomifenecitrate capsules group and HDG (high-dose group), MDG (medium-dose group) and LDG (low-dose group) of the drug combination in the present invention.\n(§2) After 4 weeks of administration, the drug was suspended for 48 h, 10 mice were executed in each group and the remaining 10 mice were left to carry out the conception rate test.\nTo put 10 mice from each cage into the cage where 4 normally-matured male mice. 10 d after the mating, uterus of female mice were dissected to observe the conception conditions."}, "[2]": {"test_system": "mice with sterility induced by androgens", "experiment": "Quantities of follicles, oocytes and interstitial gland composition in ovary slices of androgen-sterile mice", "settings": "18 mg/kg intragastric, 4 weeks, TP-modelled mice", "procedure": "as §1, §2\nMice were executed and their ovaries and uterus were removed. Ovaries were fixed with […] and tissue slices were observed under the ordinary optical microscope after the process of HE tinction and oil red 0 tinction. Uterus were fixed with 100 g/L formaldehyde and tissue slices were imbedded with paraffin and undergone the process of 4 μm slicing and ER marking. Light microscopy was used for observation after the hematoxylin counter staining."}, "[3]": {"test_system": "mice with sterility induced by androgens", "experiment": "Estradiol (E2) content in sera of mice with sterility induced by androgens (ELISA)", "settings": "18 mg/kg intragastric, 4 weeks, TP-modelled female mice, serum", "experimental": "Blank control group: Intragastrically administrated with distilled water on daily basis at a dose of 2 ml/d;\nModel control group: Intragastrically administrated with distilled water on daily basis and at a dose of 2 ml/d;\nIrrigation was stopped for 48 h, orbital blood of mice was collected, serum was separated and enzyme linked immunosorbent assay was used to detect E2."}}}
{"smiles": "CCN(CC)CCOc1ccc(C(=C(Cl)c2ccccc2)c2ccccc2)cc1", "note": "[Clomifenecitrate capsules, Clomifenecitrate]", "values": [{"measurement": "Number of conception", "setting": "[1]; 10 female mice", "value": 6, "unit": "mice"}, {"measurement": "Rate of conception", "setting": "[1]", "value": 60.0, "unit": "%"}, {"measurement": "Interstitial gland composition", "setting": "[2]", "value": "24.96 ± 5.00"}, {"measurement": "Quantity of follicles", "setting": "[2]", "value": "37.6 ± 6.4", "unit": "piece"}, {"measurement": "Quantity of oocytes", "setting": "[2]", "value": "8.7 ± 2.2", "unit": "piece"}, {"measurement": "E2", "setting": "[3]", "value": "12.76 ± 4.98", "unit": "µg/L"}]}
